Measurements taken from ChEMBL document CHEMBL5465560, “Selectivity Literature for EUbOPEN Chemogenomic Library” (2024).
Each block holds one compound with its values, some of them ahead of it.

How the values were obtained:
[1] = target: T1, Dual specificity tyrosine-phosphorylation-regulated kinase 3 (Homo sapiens) (UniProt O43781); assay: Selectivity interaction (SelectScreen profiling (Invitrogen)) EUB0000607a DYRK3; conditions: at 2 µM
T1 sequence (whole entry): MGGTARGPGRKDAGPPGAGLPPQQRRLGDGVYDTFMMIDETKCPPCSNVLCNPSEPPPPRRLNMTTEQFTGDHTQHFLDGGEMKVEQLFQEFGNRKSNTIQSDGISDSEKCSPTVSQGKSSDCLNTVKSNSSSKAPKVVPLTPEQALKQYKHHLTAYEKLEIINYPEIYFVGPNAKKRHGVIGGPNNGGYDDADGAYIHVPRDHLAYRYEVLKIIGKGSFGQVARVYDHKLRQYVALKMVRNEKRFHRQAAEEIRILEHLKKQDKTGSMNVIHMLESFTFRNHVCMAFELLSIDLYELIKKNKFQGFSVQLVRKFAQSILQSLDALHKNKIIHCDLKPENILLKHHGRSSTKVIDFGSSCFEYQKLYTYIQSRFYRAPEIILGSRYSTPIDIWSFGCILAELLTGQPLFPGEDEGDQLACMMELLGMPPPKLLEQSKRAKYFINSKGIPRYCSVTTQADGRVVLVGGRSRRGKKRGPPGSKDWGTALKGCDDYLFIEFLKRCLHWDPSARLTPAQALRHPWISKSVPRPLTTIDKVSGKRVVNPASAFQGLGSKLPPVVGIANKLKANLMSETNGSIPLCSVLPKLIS

[2] = target: T2, Serine/threonine-protein kinase D2 (Homo sapiens) (UniProt Q9BZL6); assay: Selectivity interaction (KinomeScan (DiscoverX)) EUB0000607a PRKD2; conditions: at 10 µM
T2 sequence (whole entry): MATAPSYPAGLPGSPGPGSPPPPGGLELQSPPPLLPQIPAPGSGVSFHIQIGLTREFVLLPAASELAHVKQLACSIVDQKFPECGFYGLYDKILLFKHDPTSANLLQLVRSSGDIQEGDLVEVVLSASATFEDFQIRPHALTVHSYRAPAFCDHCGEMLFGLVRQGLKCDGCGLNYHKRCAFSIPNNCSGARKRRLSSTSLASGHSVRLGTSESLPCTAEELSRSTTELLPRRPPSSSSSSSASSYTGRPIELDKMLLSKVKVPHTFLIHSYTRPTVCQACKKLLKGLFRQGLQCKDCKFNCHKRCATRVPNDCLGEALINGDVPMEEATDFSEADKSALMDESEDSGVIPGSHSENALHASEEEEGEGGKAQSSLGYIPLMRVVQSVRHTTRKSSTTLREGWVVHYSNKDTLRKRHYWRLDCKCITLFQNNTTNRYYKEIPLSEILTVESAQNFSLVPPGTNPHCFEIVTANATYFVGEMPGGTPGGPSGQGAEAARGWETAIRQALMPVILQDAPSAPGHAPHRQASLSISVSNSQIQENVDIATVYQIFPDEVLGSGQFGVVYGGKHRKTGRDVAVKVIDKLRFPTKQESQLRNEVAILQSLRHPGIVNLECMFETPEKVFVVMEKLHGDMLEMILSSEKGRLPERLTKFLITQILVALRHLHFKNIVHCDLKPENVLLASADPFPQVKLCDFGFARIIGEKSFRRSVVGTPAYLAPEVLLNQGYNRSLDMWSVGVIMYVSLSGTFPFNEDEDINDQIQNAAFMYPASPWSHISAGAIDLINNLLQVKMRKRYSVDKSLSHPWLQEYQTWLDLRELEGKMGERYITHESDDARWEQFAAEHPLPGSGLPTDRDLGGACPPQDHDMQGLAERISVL

[3] = target: Tyrosine-protein kinase ABL2 (Homo sapiens, UniProt P42684); assay: Selectivity interaction (Upstate Kinase Profiler service (Millipore)) EUB0000056c ABL2; conditions: at 1 µM
[4] = target: Histone-lysine N-methyltransferase PRDM9 (Homo sapiens) (UniProt Q9NQV7); conditions: at 1 µM
[5] = target: Cyclin-dependent kinase 14 (Homo sapiens) (UniProt O94921); assay: Selectivity interaction (Kinase panel (KiNativ target engagement assay in Jurkat cells)) EUB0001635a CDK14; format: cell-based; conditions: at 1 µM
[6] = target: BDNF/NT-3 growth factors receptor (Homo sapiens) (UniProt Q16620); assay: Selectivity interaction (ProQinase) EUB0000171b NTRK2
[7] = target: G protein-coupled receptor kinase 4 (Homo sapiens) (UniProt P32298); assay: Selectivity interaction (KinomeScan (DiscoverX)) EUB0001049a GRK4; conditions: at 1 µM
[8] = target: Mitogen-activated protein kinase 6 (Homo sapiens) (UniProt Q16659); assay: Selectivity interaction (KinomeScan (DiscoverX)) EUB0001049a MAPK6; conditions: at 1 µM
[9] = target: Casein kinase I isoform gamma-3 (Homo sapiens) (UniProt Q9Y6M4); assay: Selectivity interaction (KinomeScan (DiscoverX)) EUB0000092b CSNK1G3; conditions: at 10 µM
Chain of Casein kinase I isoform gamma-3 (Homo sapiens) (Q9Y6M4 whole entry, looked up, canonical isoform): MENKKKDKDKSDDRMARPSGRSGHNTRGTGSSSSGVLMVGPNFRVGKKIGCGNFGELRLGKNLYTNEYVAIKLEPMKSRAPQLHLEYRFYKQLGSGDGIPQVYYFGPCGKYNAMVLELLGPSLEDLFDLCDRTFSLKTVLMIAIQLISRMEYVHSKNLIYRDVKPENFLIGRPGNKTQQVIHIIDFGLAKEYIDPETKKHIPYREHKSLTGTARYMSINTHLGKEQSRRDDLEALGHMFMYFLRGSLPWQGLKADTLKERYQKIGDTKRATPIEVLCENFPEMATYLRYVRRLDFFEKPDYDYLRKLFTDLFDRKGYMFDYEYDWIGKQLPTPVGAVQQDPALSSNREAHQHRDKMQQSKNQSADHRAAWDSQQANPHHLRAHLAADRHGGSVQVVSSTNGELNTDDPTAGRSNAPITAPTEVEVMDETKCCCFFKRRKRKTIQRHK

Chain of BDNF/NT-3 growth factors receptor (Homo sapiens) (Q16620 32-822 limits assumed): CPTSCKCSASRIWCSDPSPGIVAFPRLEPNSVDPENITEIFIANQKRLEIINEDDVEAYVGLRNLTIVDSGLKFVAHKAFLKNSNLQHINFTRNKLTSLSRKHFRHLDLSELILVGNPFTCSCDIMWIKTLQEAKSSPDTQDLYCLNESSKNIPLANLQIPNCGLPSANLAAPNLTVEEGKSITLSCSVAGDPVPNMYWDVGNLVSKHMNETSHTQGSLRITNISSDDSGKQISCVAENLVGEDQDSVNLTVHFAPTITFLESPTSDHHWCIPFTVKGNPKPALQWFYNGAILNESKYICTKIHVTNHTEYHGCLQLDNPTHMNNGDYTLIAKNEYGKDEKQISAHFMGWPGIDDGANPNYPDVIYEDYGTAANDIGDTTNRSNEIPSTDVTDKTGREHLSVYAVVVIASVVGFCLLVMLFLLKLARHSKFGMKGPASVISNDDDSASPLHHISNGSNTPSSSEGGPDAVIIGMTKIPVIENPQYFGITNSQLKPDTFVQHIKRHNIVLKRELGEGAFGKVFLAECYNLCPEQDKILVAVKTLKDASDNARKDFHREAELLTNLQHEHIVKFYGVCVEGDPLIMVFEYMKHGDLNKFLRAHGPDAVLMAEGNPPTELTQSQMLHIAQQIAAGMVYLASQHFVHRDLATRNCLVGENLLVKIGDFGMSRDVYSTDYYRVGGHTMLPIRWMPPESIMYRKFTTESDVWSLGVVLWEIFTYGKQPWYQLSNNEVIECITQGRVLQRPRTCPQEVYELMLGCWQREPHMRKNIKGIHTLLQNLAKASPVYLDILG
Chain of Tyrosine-protein kinase ABL2 (P42684 whole entry): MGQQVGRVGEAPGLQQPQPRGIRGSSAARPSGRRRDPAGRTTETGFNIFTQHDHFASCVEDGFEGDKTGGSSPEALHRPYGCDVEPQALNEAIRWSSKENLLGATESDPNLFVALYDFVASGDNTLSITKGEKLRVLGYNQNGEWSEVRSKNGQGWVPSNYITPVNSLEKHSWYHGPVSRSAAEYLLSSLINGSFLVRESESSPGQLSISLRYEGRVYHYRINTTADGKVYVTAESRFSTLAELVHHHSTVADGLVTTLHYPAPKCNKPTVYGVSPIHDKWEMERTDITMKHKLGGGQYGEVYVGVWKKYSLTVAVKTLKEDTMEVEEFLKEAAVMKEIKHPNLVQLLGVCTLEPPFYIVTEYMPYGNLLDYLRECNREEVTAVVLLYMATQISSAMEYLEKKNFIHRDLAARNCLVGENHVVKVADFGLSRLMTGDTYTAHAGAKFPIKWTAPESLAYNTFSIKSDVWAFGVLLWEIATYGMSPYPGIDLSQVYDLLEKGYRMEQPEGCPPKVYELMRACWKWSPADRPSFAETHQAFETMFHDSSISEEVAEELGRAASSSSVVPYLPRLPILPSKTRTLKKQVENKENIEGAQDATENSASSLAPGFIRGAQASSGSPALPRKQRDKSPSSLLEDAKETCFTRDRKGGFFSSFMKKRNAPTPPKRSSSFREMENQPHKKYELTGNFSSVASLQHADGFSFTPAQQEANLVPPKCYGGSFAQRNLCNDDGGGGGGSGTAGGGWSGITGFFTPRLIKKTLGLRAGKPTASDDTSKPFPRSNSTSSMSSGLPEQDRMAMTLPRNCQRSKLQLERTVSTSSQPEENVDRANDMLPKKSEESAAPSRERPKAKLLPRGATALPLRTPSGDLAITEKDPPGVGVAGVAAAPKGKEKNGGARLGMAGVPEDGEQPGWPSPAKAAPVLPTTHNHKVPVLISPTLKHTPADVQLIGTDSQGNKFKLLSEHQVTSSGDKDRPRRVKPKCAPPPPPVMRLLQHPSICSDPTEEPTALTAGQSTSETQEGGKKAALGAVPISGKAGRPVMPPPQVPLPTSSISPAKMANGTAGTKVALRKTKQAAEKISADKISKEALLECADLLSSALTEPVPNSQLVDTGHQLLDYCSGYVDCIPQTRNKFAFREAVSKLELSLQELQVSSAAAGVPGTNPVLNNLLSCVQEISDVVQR
Chain of Cyclin-dependent kinase 14 (Homo sapiens) (O94921 whole entry): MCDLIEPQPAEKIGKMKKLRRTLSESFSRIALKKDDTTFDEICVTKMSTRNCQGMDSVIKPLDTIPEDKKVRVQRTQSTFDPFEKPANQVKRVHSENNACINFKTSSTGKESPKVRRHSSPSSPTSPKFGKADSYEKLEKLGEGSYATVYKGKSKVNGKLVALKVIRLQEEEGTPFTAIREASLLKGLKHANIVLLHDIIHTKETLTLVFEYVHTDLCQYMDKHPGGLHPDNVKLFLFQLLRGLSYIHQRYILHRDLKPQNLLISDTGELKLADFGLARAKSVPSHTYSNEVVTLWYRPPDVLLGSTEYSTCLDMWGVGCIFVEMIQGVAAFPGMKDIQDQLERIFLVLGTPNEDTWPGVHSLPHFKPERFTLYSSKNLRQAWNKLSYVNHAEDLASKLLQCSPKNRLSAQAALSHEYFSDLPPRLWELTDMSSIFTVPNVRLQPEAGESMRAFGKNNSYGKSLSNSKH
Chain of G protein-coupled receptor kinase 4 (Homo sapiens) (P32298 whole entry, looked up): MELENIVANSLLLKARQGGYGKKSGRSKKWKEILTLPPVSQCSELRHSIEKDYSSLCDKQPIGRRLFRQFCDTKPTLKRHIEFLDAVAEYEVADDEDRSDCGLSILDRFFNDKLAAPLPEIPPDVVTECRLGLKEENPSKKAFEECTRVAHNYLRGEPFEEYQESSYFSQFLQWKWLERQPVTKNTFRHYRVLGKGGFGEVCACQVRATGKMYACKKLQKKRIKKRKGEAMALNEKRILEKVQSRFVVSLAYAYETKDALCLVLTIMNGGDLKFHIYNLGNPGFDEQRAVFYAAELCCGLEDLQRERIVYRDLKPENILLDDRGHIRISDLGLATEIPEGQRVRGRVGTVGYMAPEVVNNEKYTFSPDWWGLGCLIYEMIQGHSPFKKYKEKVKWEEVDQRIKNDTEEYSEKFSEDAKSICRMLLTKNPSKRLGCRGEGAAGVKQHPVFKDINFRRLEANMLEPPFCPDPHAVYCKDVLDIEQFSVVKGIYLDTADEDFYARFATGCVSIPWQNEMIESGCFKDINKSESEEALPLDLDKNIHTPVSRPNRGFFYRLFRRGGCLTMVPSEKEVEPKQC
Chain of Mitogen-activated protein kinase 6 (Homo sapiens) (Q16659 whole entry, canonical isoform): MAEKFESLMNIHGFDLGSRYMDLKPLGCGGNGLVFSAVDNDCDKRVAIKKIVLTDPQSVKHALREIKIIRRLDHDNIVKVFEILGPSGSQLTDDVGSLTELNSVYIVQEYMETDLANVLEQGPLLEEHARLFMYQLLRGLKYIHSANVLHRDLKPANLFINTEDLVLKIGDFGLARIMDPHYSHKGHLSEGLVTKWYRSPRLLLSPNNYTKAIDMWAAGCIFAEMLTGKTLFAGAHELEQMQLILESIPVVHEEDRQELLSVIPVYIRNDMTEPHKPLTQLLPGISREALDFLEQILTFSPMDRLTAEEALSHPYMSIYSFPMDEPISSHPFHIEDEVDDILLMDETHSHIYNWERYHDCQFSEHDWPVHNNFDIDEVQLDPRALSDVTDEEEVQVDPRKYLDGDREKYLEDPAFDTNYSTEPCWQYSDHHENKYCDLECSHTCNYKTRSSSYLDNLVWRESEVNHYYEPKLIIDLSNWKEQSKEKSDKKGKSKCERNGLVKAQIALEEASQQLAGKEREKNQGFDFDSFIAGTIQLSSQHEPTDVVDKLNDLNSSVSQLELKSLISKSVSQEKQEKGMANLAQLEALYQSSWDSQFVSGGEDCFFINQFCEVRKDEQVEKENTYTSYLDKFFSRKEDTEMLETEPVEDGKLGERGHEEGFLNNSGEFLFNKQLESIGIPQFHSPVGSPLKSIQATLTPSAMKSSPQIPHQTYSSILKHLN

SMILES: CNC(=O)Nc1ccc(-c2nc(N3CC4CCC(C3)O4)c3cnn(C4CCC5(CC4)OCCO5)c3n2)cc1
% of inhibition [1]: -1%
% of control [2]: 100%

% of inhibition [3]: 13%
SMILES: Cc1ccc(-c2ccc3c(ccc4sc5c(c43)NC[C@@H](C)NC5=O)n2)cn1

% activity [4]: > 90%
SMILES: CNCCN1CCC(c2cc(CN(C)C(=O)c3cccc(Oc4ccccc4)c3)ccn2)CC1

SMILES: C=CC(=O)Nc1ccc(C(=O)Nc2[nH]nc3c2CN(C(=O)N[C@H](CN(C)C)c2ccccc2)C3(C)C)cc1
% of engagement [5]: -33.3%

% of control ([6]; at 1 µM): 89%
% of control ([6]; at 5 µM): 81%
SMILES: C=CC(=O)Nc1cccc(C(=O)Nc2ccc(Nc3cc(-c4[nH]c(SC)nc4C)ccn3)cc2)c1

SMILES: COc1cc(Nc2nc(C)cc(-c3cnn4nc(OC)ccc34)n2)cc(C(F)(F)F)c1
% of control [7]: 85%
% of control [8]: 92%

SMILES: CCC(=O)N1CCN(c2ccc(-n3c(=O)ccc4cnc5ccc(-c6cnc7ccccc7c6)cc5c43)cc2C(F)(F)F)CC1
% of control [9]: 100%
